Our source for the IC50 values is BindingDB's records for patent US10919885 (Yumanity Therapeutics, 2021).

Molecules are shown by their SMILES. pIC50: −log10 of the molar value.

For experiment [1], the target named is T1, Stearoyl-CoA desaturase (Homo sapiens, UniProt O00767).
T1 sequence (O00767 whole entry): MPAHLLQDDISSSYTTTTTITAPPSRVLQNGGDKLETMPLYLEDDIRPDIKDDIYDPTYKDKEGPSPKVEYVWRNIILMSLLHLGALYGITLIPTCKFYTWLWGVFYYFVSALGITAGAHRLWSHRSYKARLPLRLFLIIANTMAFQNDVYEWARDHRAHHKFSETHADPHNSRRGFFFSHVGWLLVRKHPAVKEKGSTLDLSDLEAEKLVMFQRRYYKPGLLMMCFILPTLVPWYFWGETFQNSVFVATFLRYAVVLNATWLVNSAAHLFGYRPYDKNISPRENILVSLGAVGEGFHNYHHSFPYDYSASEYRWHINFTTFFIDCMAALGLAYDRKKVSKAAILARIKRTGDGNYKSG
Kind of experiment: Compound Profiling Methods. On the procedure:
(§1) Strains expressing SCD1 or SCD5 as the sole desaturase, the human SCD1 and SCD5 genes were used to evaluate inhibition of SCD1/SCD5 using reduced growth as a surrogate for SCD inhibition. These yeast strains express human SCD1 or SCD5 from a plasmid harbored in a strain in which the yeast OLE1 gene is deleted.All compound profiling experiments were performed using the same basic protocol. Yeast were cultured using standard techniques in complete synthetic media lacking uracil and containing yeast nitrogen base supplemented with 2% (w/v) glucose (SD-Ura) Starter cultures were inoculated in 3 mL SD-Ura media containing 0.01% tween and 0.2 mM palmitoleic and oleic acid. Cultures were incubated overnight in a 30° C. shaker incubator (225 rpm). Saturated morning cultures were centrifuged, washed in SD-Ura media lacking TWEEN-20 and fatty acids, and then diluted 1:20 in fresh SD-Ura media also lacking TWEEN-20 and fatty acids. […] Compound administration was performed in two separate steps. First, 15 μL of SD-Ura was dispensed into clear 384-well assay plates using a MULTIDROP Combi reagent dispenser. […] The cultures described above were centrifuged and washed with media lacking TWEEN-20 or oleic and palmitoleic acids. Cultures were then resuspended at a 2-fold concentrated OD600 of 0.02 (final OD600 of 0.0.01) in SD-Ura. […] Yeast growth was monitored by reading the OD600 of each well using a microplate reader (Perkin Elmer EnVision ). Data were analyzed as follows.

In experiment [2] the target is T2, Stearoyl-CoA desaturase 5 (Homo sapiens, UniProt Q86SK9).
T2 sequence (Q86SK9 whole entry): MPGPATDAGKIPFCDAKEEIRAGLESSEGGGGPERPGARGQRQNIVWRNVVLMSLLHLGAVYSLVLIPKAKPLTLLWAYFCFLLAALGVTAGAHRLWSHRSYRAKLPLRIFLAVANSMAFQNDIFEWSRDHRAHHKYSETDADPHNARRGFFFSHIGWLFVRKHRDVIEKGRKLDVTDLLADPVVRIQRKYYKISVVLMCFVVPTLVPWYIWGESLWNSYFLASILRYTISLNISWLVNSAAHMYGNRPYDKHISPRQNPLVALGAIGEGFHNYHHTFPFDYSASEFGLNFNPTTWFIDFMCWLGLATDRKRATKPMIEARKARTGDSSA
Kind of experiment: Compound Profiling Methods. The method, then: as §1

For the compound `O=C(Nc1cnn(Cc2ccccc2)c1)c1cc(-c2ccc3c(c2)OCO3)on1` [US10919885, Compound No. 6], in experiment [1], the pIC50 is below 4.35.
On to `O=C(Nc1cnn(Cc2cccc(Cl)c2)c1)c1cc(-c2ccccn2)on1` [US10919885, Compound No. 57], for which the pIC50 in experiment [1] and in experiment [2] was below 4.35 throughout.
Take `CC(C)(C)OC(=O)N1CCC(NC(=O)c2cc(-c3ccco3)on2)CC1` [US10919885, Compound No. 287]: the pIC50 in experiment [1] and in experiment [2] was below 4.35 each time.
Take `N#Cc1ccc(C2CCN(C(=O)c3cc(-c4ccc5c(c4)OCO5)on3)CC2)cc1` [US10919885, Compound No. 291]: the results for the pIC50 in experiment [1] and in experiment [2] were below 4.35 and 5.32, respectively.
The like results for `O=C(c1cc(-c2ccc3c(c2)OCO3)on1)N1CCC(c2ccc(F)c(F)c2)CC1` [US10919885, Compound No. 292] were, in that order, below 4.35 and 5.74.
In the case of `CC(C)(C)OC(=O)N1CCC2(CCN(C(=O)c3cc(-c4ccccc4)on3)C2)C1` (stereo not drawn) [US10919885, Compound No. 295], the values for the negative logarithm of the IC50 (pIC50) in experiment [1] and in experiment [2] were below 4.35 and 4.53, respectively.
In the case of `CC(C)(C)OC(=O)N1CCC(NC(=O)c2cc(-c3ccco3)on2)C1` (stereo not drawn) [US10919885, Compound No. 332], the pIC50 in experiment [1] and in experiment [2] was below 4.35 in each case.
In experiment [1], `COc1ccc(C2CCCN2C(=O)c2cc(-c3ccccc3OC)on2)cc1` (stereo not drawn) [US10919885, Compound No. 379] had a pIC50 below 4.35.
As for `O=C(c1noc2ccccc12)N1CCC[C@H]1c1ccccc1` [US10919885, Compound No. 438], the pIC50 in experiment [1] and in experiment [2] was below 4.35 throughout.
Consider `O=C(c1cc(-c2ccc3c(c2)CCO3)on1)N1CCCC1c1ccncn1` (stereo not drawn) [US10919885, Compound No. 440], for which the pIC50 in experiment [1] and in experiment [2] was below 4.35 in each case.
